US5202354A, “Composition and method for reducing acetaldehyde toxicity” (priority 1986, dated 1993)
“Also recorded” adds a separate entry of the source. Counter-ions that a name gives are not always drawn.

Assay: Antagonistic effects on the anesthetic and lethal effects of acetaldehyde in rats
Type: in vivo
Details: acetaldehyde 1370 mg/kg oral, hydrochloride
Description: Rats (body weights 250-280 g) fasted for 18 hours were previously dosed orally with each of test compositions Formula A to Formula G as shown in below. Control group received a corresponding volume of saline by the same route. After a predetermined time (45-60 min ), acetaldehyde (1370 mg/kg) was orally administered to the rats and the effect of Formula A to Formula G on the anesthetic and lethal effects of acetaldehyde was observed.
When 1370 mg/kg of acetaldehyde was administered without prior treatment with the test compositions, the rats (control group) fell into anesthesia within several minutes, and then developed dyspnea and the like and 90% of them died within 1 to 6 hours.
The same experiment as Experimental Example I was carried out with each of test compositions Formula H and I and the results obtained are shown in Table 4.

**Q.** Which “antagonizing effect against anesthetic and lethal effects of acetaldehyde (in words)” value does the source give for `CC(=C(CCO)SSCC1CCCO1)N(C=O)Cc1cnc(C)nc1N` (stereo in doubt) [fursultiamine hydrochloride] here?
**A.** The value was “fully effective at the level of addition of 20 mg/kg; also recorded: more effective than thiamine hydrochloride”.
